We go through 1 compound from patent US20250339391A1, “METHODS FOR EFFECTIVE MANAGEMENT OF PAIN” (South Rampart Pharma, Inc., priority 2024, published 2025).

As a reminder, the half-life is how long it takes for the measured level to halve. What is called Tmax is the time at which the peak concentration occurs.

“Also recorded” adds a separate entry of the source.

One data set deals with male Sprague-Dawley rats. The data set is described as follows: Neuropharmacological profile (modified Irwin/FOB) in Sprague-Dawley rats (GLP). The class given is in vivo, rat. As to the method: Any potential neuropharmacological effects of orally administered SRP-001 in rats were assessed in three groups of eight male Sprague-Dawley rats. Each was orally administered SRP-001 at a single dose of 220, 440, or 660 mg/kg. Vehicle (10% labrasol: 10% DMSO: 80% PEG400) was administered to an additional group of eight rats. The dose volume was 10 mL/kg. […] All observations were made at ±5 min for the observations through 1 h post-dose and ±15 min for the later observations. Body temperature was measured 1 h following dose administration.

Data set [1] concerns Beagle dogs. Description: Single oral dose (capsule) toxicity and pharmacokinetic study in Beagle dogs (non-GLP). The class given is in vivo. Here is the method:
2) A Single Oral Dose Toxicity and Pharmacokinetic Study of SRP-001 in Beagle Dogs (non-GLP) SRP-001 was prepared into capsules for oral administration. Three experimentally non-naïve Beagle dogs, at least 7 months old and weighing 7.7 to 10 kg prior to treatment initiation, were administered a single dose of 300 mg/kg SRP-001 (Calvert Labs/Altasciences, Scott Township, PA USA). On the day of dosing, animals were observed prior to dose administration, approximately 1-3 h post-dose, and once on day 2. Body weights were recorded for all animals prior to dose administration for the preparation of the capsules. Blood for bioanalytical evaluation was collected at selected timepoints on day 1. Following the completion of the study, surviving animals were not euthanized. They were returned to the Calvert colony for an appropriate washout period before possible use in a subsequent study. […] Plasma samples were collected at seven different time points post-dose.

The test system of a further data set is Sprague-Dawley rats. The data set is described as follows: 5-day repeat-dose oral toxicity and toxicokinetics in Sprague-Dawley rats (non-GLP). The class given is in vivo, rat. Here is the method:
4) A Dose-Range-Finding Oral Toxicity Study with SRP-001 in Sprague-Dawley Rats (Non-GLP) As part of a two-phase study, repeat-dose toxicity and toxicokinetics of SRP-001, when administered via oral gavage once daily to Sprague-Dawley rats for 5 d, was done (Calvert Labs/Altasciences, Scott Township, PA USA). The doses selected for Phase II were based on the results of Phase I. SRP-001 was administered to 20 naïve rats (5/group in Groups 5-8) once daily for 5 days via oral gavage for toxicology evaluation and once to 18 naïve rats (6/group in Groups 9-11) for toxicokinetic evaluation.
Mortality/morbidity was performed twice daily and once prior to sacrifice. Clinical observations were evaluated prior to each dose administration and approximately 1-3 h post-dose for animals in Groups 5-8. Body weights were recorded prior to randomization/selection, prior to dose administration on day 1 for animals in Groups 5-11, and prior to dose administration on day 5 for Groups 5-8. Food consumption was recorded for animals from Groups 5-8 on day 5. Blood for evaluation of hematology, coagulation and clinical chemistry and urine for urinalysis was collected from animals in Groups 5-8 on day 6. All animals in Groups 5-8 were sacrificed on […]. Selected tissues were harvested at necropsy, selected organs weighed, and selected tissues preserved. Blood for toxicokinetic evaluation was collected from animals in Groups 9-11 at selected timepoints on day 1 to ensure comprehensive data capture. These timepoints include 0 hour (pre-dose) and post-dose intervals of 1, 2, 4, 8, and 24 hours on both Day 1 and […] of the study. This schedule allows for a robust assessment of SRP-001's pharmacokinetic profile, including absorption, distribution, metabolism, and excretion and is in line with current FDA-guidelines for GLP studies.

Data set [2] deals with Beagle dogs. The data set is described as follows: 7-day repeat-dose oral toxicity study in Beagle dogs, Phase II (non-GLP). The class given is in vivo, dog. As to the method: 7) A Dose-Range-Finding and 7-day Repeat-Dose Oral Toxicity Study of SRP-001 in Beagle dogs (Non-GLP) In Phase II of this study, 0, 30, 100, or 300 mg/kg/d of SRP-001 was administered once daily for seven consecutive days to 1 Beagle dog/sex/dose (Calvert Labs/Altasciences, Scott Township, PA USA). Mortality/morbidity was observed twice daily and once prior to scheduled sacrifice. Clinical observations were evaluated prior to each dose administration and at approximately 1-3 h post-dose and once prior to scheduled sacrifice on day 8. Body weights were recorded on days 1 and 7, and a fasted body weight was recorded prior to scheduled sacrifice on day 8. Food consumption was recorded daily. Blood for evaluation of hematology, coagulation, and clinical chemistry parameters and urine for urinalysis was collected from all animals prior to treatment initiation and from all Phase II animals prior to scheduled sacrifice on day 8. Blood for toxicokinetic evaluation was collected at selected time points on days 1 and 7. Selected tissues were harvested and weighed at necropsy. No microscopic evaluations were performed. […] The clinical observations corroborated with findings of red discoloration in the duodenum of the control group female, the jejunum of the low-dose male, and the colon of both high-dose dogs.

Data set [3] is described as follows: Jet milling and nano-milling: particle size and solubility. Type of data set: physicochemical. Here is the method:
In certain instances, a crystalline compound of Formula I is jet milled. Thereafter, the milled compound of Formula I is dispersed in a solution comprising 1% hydroxypropyl cellulose (1% HPC) and sterile water for injection and subjected to wet milling. The target particle size is approximately D90 0.15 μm. The disclosure provides using nanomilling and jet-milling techniques, to prepare an oral nanoparticle suspension containing 100 mg/mL SRP-001 in preserved aqueous 1% HPC. An oral nanoparticle suspension containing 100 mg/mL SRP-001 in aqueous 1% HPC preserved with 0.1% sodium benzoate was used.
The drug therapeutic candidate is manufactured in a two-step process (Latitude Pharmaceuticals, Inc., San Diego, CA USA). First, SRP-001 is jet milled. Second, the milled API is dispersed in a solution comprising 1% hydroxypropyl cellulose (1% HPC) and sterile water for injection and subjected to wet milling. The target particle size is approximately D90 0.15 μm. […] An oral nanoparticle suspension containing 100 mg/mL SRP-001 in aqueous 1% HPC preserved with 0.1% sodium benzoate was manufactured for use in nonclinical studies as Lot LPI2021028 and stored at 5° C.±3° C. […] The same formulation as above was manufactured under cGMP for use in clinical studies as Lot LPI2021031 and stored at 5° C.±3° C. […] This lot has been placed on stability at 5° C., 25° C./60% RH, and 40° C./75% RH. Finally, an appearance-matched placebo consisting of 2% microcrystalline cellulose in aqueous 1% HPC preserved with 0.1% sodium benzoate and 0.05% EDTA disodium dihydrate was manufactured under cGMP for use in clinical studies. The above oral suspensions were manufactured by Latitude Pharmaceuticals Inc. (San Diego, CA, USA).

As for `CCN(CC)C(=O)c1ccccc1S(=O)(=O)NCC(=O)Nc1ccc(O)cc1` [SRP-001, N,N-diethyl-2-[[2-(4-hydroxyanilino)-2-oxo-ethyl]sulfamoyl]benzamide], the “body temperature versus vehicle” value in the data set with male Sprague-Dawley rats (660 mg/kg, 1 h post-dose) is reported as “significantly (p≤0.05) lower; also recorded: lower body temperature”. Further, the “neuropharmacological or clinical signs” value in the data set on male Sprague-Dawley rats (220, 440 or 660 mg/kg oral, through 24 h post-dose) was “No apparent neuropharmacological or clinical signs were observed”. Further, the tolerability entry in the data set with Beagle dogs [1] (dog, in vivo, 300 mg/kg) is “well tolerated”. In addition, the bioavailability entry in the data set with Beagle dogs [1] (single 300 mg/kg, capsules) is given as “poor bioavailability”. The “liver weights and cholesterol” value in the data set on Sprague-Dawley rats (5 days oral gavage) is “increases in absolute and relative liver weights and increased cholesterol levels”. Further, the tolerated dose worked out at 1200 mg/kg in the data set on Sprague-Dawley rats (Sprague-Dawley, rat, in vivo, 5 d) and 300 mg/kg in the data set with Beagle dogs [2] (both, Beagle, dog, in vivo, 7 d). Besides, the “AUC and Cmax levels” value in the data set on Sprague-Dawley rats (day 1 toxicokinetics) was “increased in a dose-dependent manner”; in the data set with Beagle dogs [2] (dog, in vivo), “increased in a dose-dependent manner, with day 1 levels higher than those from day 7”. The half-life in the data set on Sprague-Dawley rats (high dose) is listed as 6.86 h; with Sprague-Dawley rats (mid dose) it was 6.19 h. In addition, the Tmax is 3 h in the data set with Sprague-Dawley rats (low dose); 4.5 h in the data set with Sprague-Dawley rats (mid and high doses). In addition, in the data set on Beagle dogs [2] (30, 100, 300 mg/kg/d), the clinical signs result is “loose or soft feces and emesis”. Moreover, the solubility entry in data set [3] (after jet milling and nano-milling) is “increase the solubility”. The particle size was 0.1666 μm in data set [3] (after jet milling and nano-milling for 17 h (FIG. 25A)); 879.33 μm in data set [3] (before milling (FIG. 25B)).
